Paper PMC11542717 (ADMET & DMPK, 2024)
Read-outs that look alike come from different tables or passages of the source.

Columns and labels:
[1] = cited from earlier work; for CHIIAM: pharmaceuticals used for model construction (training set); for CHIIAM (predetermined): calibration set, established by isocratic measurement
[2] = format: physicochemical; details: IAM PC.DD2 column, pH 7.4, acetonitrile gradient, UV filters
[3] = test system: water flea (Daphnia magna); details: 48 h static, immobilization; ECHA database, converted to -log M; cited from earlier work
[4] = test system: fish species; details: 96 h static; ECHA database, mg/L converted to -log M; cited from earlier work

SMILES | CHIIAM [1] | CHIIAM (chromatographic phospholipid binding) [2] | pEC50 water flea (Daphnia magna), Experimental [3] | further results
CC1COc2c(N3CCN(C)CC3)c(F)cc3c(=O)c(C(=O)O)cn1c23 (centres unmarked) [Ofloxacin] | 28.9 | – | – | –
Nc1ccc(S(=O)(=O)Nc2ccc(Cl)nn2)cc1 [Sulfachlorpyridazine] | 7.67 | – | – | –
COc1cc(NS(=O)(=O)c2ccc(N)cc2)nc(OC)n1 [Sulfadimethoxine] | 13.8 | – | – | –
Nc1ccc(C(=O)O)cc1 [4-Aminobenzoic Acid, 4-aminobenzoic acid] | – | 3.30 | 3.26 | CHIIAM (chromatographic phospholipid binding) ([2]; listed as aminobenzoic acid): < 20; pLC50 fish, Experimental [4]: 2.12
COc1ccc(C(=O)c2ccccc2)c(O)c1 [Oxybenzone, oxybenzone] | – | 40.8 | 4.92 | pLC50 fish, Experimental [4]: 4.78
CCCCCC(=O)c1ccccc1 [Hexanophenone] | – | – | – | CHIIAM (predetermined) [1]: 41.8
O=S(=O)(O)c1ccc2[nH]c(-c3ccccc3)nc2c1 [Ensulizole, ensulizole] | – | 13.2 | 3.44 | CHIIAM (chromatographic phospholipid binding) ([2]; listed as ensulizole): < 20; pLC50 fish, Experimental [4]: 2.91
COc1ccc(C(=O)CC(=O)c2ccc(C(C)(C)C)cc2)cc1 [Avobenzone, avobenzone] | – | 53.4 | 5.20 | CHIIAM (chromatographic phospholipid binding) ([2]; listed as avobenzone): > 45
CCCCC(=O)c1ccccc1 [Valerophenone] | – | – | – | CHIIAM (predetermined) [1]: 37.3
Cc1ccc(C)c(OCCCC(C)(C)C(=O)O)c1 [Gemfibrozil] | 33.7 | – | – | –
CCCCC(CC)COC(=O)c1ccc(N(C)C)cc1 (centres unmarked) [Padimate O, padimate O] | – | 53.6 | 4.69 | pLC50 fish, Experimental [4]: 4.85
CCc1nc(N)nc(N)c1-c1ccc(Cl)cc1 [Pyrimethamine] | 38.2 | – | – | –
CN(C)CCC=C1c2ccccc2CCc2ccccc21 [Amitriptyline] | 55.3 | – | – | –
Nc1ccc(S(=O)(=O)Nc2nccs2)cc1 [Sulfathiazole] | 11.0 | – | – | –
CC(=O)c1ccccc1 [Acetophenone] | – | – | – | CHIIAM (predetermined) [1]: 17.2
COCCc1ccc(OCC(O)CNC(C)C)cc1 (centres unmarked) [Metoprolol] | 35.4 | – | – | –
CCCCCCC(=O)c1ccccc1 [Heptanophenone] | – | – | – | CHIIAM (predetermined) [1]: 45.7

SMILES | CHIIAM [1] | CHIIAM (chromatographic phospholipid binding) [2] | pEC50 water flea (Daphnia magna), Experimental [3] | further results
Cn1c(=O)c2[nH]cnc2n(C)c1=O [Theophylline] | 1.80 | – | – | –
CCCC(=O)c1ccccc1 [Butyrophenone] | – | – | – | CHIIAM (predetermined) [1]: 32.0
CCCCCCCC(=O)c1ccccc1 [Octanophenone] | – | – | – | CHIIAM (predetermined) [1]: 49.4
COc1cc(O)c(C(=O)c2ccccc2)cc1S(=O)(=O)O [Sulisobenzone, sulisobenzone] | – | 14.3 | 3.79 | CHIIAM (chromatographic phospholipid binding) ([2]; listed as sulisobenzone): < 20; pLC50 fish, Experimental [4]: 2.69
COc1ccc([C@@H]2Sc3ccccc3N(CCN(C)C)C(=O)[C@@H]2OC(C)=O)cc1 [Diltiazem] | 42.0 | – | – | –
CCC(=O)c1ccccc1 [Propiophenone] | – | – | – | CHIIAM (predetermined) [1]: 25.9
Cc1ncc([N+](=O)[O-])n1CCO [Metronidazole] | -4.81 | – | – | –
O=C(O)Cc1ccccc1Nc1c(Cl)cccc1Cl [Diclofenac] | 34.1 | – | – | –
NC(=O)N1c2ccccc2C=Cc2ccccc21 [Carbamazepine] | 26.9 | – | – | –
CC1CC(OC(=O)c2ccccc2O)CC(C)(C)C1 (centres unmarked) [Homosalate, homosalate] | – | 56.8 | – | CHIIAM (chromatographic phospholipid binding) ([2]; listed as homosalate): > 45
CCCCC(CC)COC(=O)C(C#N)=C(c1ccccc1)c1ccccc1 (centres unmarked) [Octocrylene, octocrylene] | – | 60.0 | 5.06 | CHIIAM (chromatographic phospholipid binding) ([2]; listed as octocrylene): > 45; pLC50 fish, Experimental [4]: 5.65
COc1ccc(C(=O)c2ccccc2O)c(O)c1 [Dioxybenzone, dioxybenzone] | – | 39.9 | 4.76 | –
COc1ccc(NS(=O)(=O)c2ccc(N)cc2)nn1 [Sulfamethoxypyridazine] | 10.9 | – | – | –
CC1CCC(C(C)C)C(OC(=O)c2ccccc2N)C1 (centres unmarked) [Meradimate, meradimate] | – | 56.9 | 5.24 | CHIIAM (chromatographic phospholipid binding) ([2]; listed as meradimate): > 45; pLC50 fish, Experimental [4]: 4.48
CCCCC(CC)COC(=O)c1ccccc1O (centres unmarked) [Octisalate, octisalate] | – | 55.1 | 5.58 | CHIIAM (chromatographic phospholipid binding) ([2]; listed as octisalate): > 45; pLC50 fish, Experimental [4]: 4.40
CCCCC(CC)COC(=O)C=Cc1ccc(OC)cc1 (centres unmarked) [Octinoxate, octinoxate] | – | 54.2 | 5.03 | CHIIAM (chromatographic phospholipid binding) ([2]; listed as octinoxate): > 45
CC1(C)S[C@@H]2[C@H](NC(=O)[C@H](N)c3ccccc3)C(=O)N2[C@H]1C(=O)O [Ampicillin] | 10.5 | – | – | –
